Like-named read-outs stand apart in the source and are kept apart here. Square brackets hold non-standard residues; d marks the D form. Ends that are not written are not given here. Peptide text beside a SMILES is read from it. * marks the point of attachment. pY = N[CH](Cc1ccc(OP(=O)(O)O)cc1)C(=O)O; Nicotinoyl = O=C(c1cccnc1)*; 3Abz = Nc1cccc(C(=O)O)c1; Isobutyryl = CC(C)C(=O)*; 2Abz = Nc1ccccc1C(=O)O
How the values were obtained:
Stat3 [1] = target: T1, Stat3 (Mus musculus, UniProt P42227); test: EMSA of Stat3 DNA-binding activity in nuclear extracts (hSIE probe); type: biochemical; parameters: nuclear extracts (prepared from epidermal growth factor (EGF)-stimulated fibroblasts); endogenous in cells; host or cells: NIH3T3 fibroblasts stimulated with EGF; details: for effect on Stat3 DNA-binding activity in vitro (in words): nuclear extracts; for selectivity among Stat3, Stat1 and Stat5 (in words): EMSA IC50 comparison
T1 sequence (P42227 whole entry): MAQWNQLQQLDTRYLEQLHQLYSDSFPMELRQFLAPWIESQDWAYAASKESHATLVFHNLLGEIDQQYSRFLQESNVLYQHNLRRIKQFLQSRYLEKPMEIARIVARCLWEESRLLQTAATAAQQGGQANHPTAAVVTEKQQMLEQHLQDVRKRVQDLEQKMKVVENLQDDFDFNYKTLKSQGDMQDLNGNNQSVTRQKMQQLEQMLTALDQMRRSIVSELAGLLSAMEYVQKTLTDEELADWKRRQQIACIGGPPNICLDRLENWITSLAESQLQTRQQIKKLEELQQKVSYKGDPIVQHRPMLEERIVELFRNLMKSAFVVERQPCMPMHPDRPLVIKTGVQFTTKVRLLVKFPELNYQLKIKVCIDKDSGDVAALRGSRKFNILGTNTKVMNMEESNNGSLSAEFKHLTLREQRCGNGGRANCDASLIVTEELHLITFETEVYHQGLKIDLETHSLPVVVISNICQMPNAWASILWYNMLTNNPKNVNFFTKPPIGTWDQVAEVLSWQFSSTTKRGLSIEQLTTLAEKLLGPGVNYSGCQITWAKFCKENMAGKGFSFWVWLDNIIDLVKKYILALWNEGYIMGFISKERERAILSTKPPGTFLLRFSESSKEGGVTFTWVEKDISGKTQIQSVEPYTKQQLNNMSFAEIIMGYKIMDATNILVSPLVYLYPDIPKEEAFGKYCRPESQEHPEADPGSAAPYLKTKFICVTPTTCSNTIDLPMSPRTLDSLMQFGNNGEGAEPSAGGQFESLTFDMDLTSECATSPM
Protocol: (§1) Nuclear extract preparation and gel shift assays. Nuclear extracts were prepared from cell lines and used for electrophoretic mobility shift assay (EMSA) as previously described (Garcia, R. et al. (1997); Yu, C. L. et al. (1995); Turkson, J. et al. (1998)). In some cases, cells were pre-treated with peptidomimetics for the indicated times (12-48 h) prior to harvesting for nuclear extract preparation. In other studies, nuclear extracts were pre-incubated with peptidomimetics for 30 min at room temperature prior to incubation with radiolabeled probe. The ^32P-radiolabeled oligonucleotide probes used are hSIE (high affinity sis-inducible element, m67 variant, 5′-[…]-3′) (SEQ ID NO. 3) that binds both Stat1 and Stat3 (Garcia, R. et al. (1997); Wagner B. J. et al. (1990)) and MGFe (mammary gland factor element from the bovine β-casein gene promoter, 5′-[…]-3′) (SEQ ID NO. 4) that binds Stat1 and Stat5 (Gouilleux, F. et al. (1995); Seidel, H. M. et al. (1995)).
(§2) Peptidomimetics of the invention can be prepared by replacing prolyl or alanyl residue at the peptide bond that is N-terminal to the phosphotyrosine (Y*) of a peptide such as PY*L or AY*L with an organic substituent such as an optionally substituted aryl or heteroaryl group. The activities of STATs were measured in nuclear extracts (prepared from epidermal growth factor (EGF)-stimulated fibroblasts) as DNA-bound protein complexes by electrophoretic mobility shift assay (EMSA).
From densitometric analysis of band intensities, the IC50 values (concentration of peptidomimetic at which DNA-binding activity is reduced by 50%), which are reported in Table 3, were determined.

Stat5:Stat5 = test: EMSA of Stat5:Stat5 DNA-binding in nuclear extracts; type: biochemical, mouse; details: nuclear extracts pre-incubated 30 min, mean and SD of at least 3 assays, read-out: IC50 values against STAT Dimers, Stat5:Stat5
Protocol: as §1
as §2, with “(EMSA). STAT-DNA complexes detected include Stat3:Stat3 homodimers (upper band), Stat1:Stat3 heterodimers (intermediate band) and Stat1:Stat1 homodimers (lower band) (FIG. 1A) when a ^32P-labeled hSIE oligonucleotide probe is used, or Stat5:Stat5 (upper band) and Stat1:Stat1 dimers (lower band) (FIG. 1B) when ^32P-labeled MGFe is used as a probe.” for “(EMSA).”

Stat1:Stat3 = target: T2, Stat1:Stat3 (Mus musculus, UniProt P42227); test: EMSA of Stat1:Stat3 heterodimer DNA-binding in nuclear extracts (hSIE probe); type: biochemical; details: nuclear extracts pre-incubated 30 min, mean and SD of at least 3 assays, read-out: IC50 values against STAT Dimers, Stat1:Stat3
T2 construct: nuclear extracts (prepared from epidermal growth factor (EGF)-stimulated fibroblasts); endogenous in cells; host or cells: NIH3T3 fibroblasts stimulated with EGF
T2 sequence (P42227 whole entry): as above
Protocol: as §1, §2

Stat1:Stat1 = target: T3, Stat1:Stat1 (Mus musculus, UniProt P42225); test: EMSA of Stat1:Stat1 DNA-binding in nuclear extracts; type: biochemical; details: nuclear extracts pre-incubated 30 min, EMSA; mean and SD of at least 3 assays; read-out: IC50 values against STAT Dimers, Stat1:Stat1
T3 construct: nuclear extracts (prepared from epidermal growth factor (EGF)-stimulated fibroblasts); endogenous in cells; host or cells: NIH3T3 fibroblasts stimulated with EGF
T3 sequence (P42225 1-749): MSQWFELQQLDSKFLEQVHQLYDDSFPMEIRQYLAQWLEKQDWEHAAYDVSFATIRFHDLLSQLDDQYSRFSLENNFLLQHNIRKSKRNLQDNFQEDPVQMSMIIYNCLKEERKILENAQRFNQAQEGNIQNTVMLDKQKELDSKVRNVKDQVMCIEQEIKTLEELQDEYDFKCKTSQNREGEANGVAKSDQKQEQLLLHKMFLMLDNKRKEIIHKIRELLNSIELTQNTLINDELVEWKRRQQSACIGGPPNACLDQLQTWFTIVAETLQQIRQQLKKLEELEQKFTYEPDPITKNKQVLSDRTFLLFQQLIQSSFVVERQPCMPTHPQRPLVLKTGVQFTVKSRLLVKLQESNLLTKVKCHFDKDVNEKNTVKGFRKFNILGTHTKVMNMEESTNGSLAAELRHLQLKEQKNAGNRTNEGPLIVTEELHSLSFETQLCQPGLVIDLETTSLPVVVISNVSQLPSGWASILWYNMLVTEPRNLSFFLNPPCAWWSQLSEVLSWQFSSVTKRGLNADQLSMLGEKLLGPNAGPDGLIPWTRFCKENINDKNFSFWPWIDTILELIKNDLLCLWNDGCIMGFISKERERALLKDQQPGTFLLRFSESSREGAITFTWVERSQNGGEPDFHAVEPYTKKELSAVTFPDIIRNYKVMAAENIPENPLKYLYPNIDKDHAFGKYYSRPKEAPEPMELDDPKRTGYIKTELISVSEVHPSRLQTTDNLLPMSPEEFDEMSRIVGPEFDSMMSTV
Protocol: as §1
as §2, with “(EMSA). STAT-DNA complexes detected include Stat3:Stat3 homodimers (upper band), Stat1:Stat3 heterodimers (intermediate band) and Stat1:Stat1 homodimers (lower band) (FIG. 1A) when a ^32P-labeled hSIE oligonucleotide probe is used, or Stat5:Stat5 (upper band) and Stat1:Stat1 dimers (lower band) (FIG. 1B) when ^32P-labeled MGFe is used as a probe.” for “(EMSA).”

[2] = target: Stat3:Stat3 homodimers (activated Stat3 in nuclear extracts of EGF-stimulated NIH3T3 fibroblasts) (mouse) (UniProt P42227); test: cell-based or functional assay
Stat3 [3] = target: T1, Stat3; parameters: nuclear extracts (prepared from epidermal growth factor (EGF)-stimulated fibroblasts); endogenous in cells; host or cells: NIH3T3 fibroblasts stimulated with EGF; details: cited from earlier work
[4] = test system: Stat1:Stat1 and Stat3:Stat3 dimers; test: Dissociation-reassociation analysis of pooled Sf-9 lysates by EMSA; type: biochemical; details: 30 min pre-treatment, 30-300 μM PY*LKTK or 3-1000 μM ISS 610, hSIE probe
Protocol: Cytosolic extract preparation and luciferase assays. Cytosolic extract preparation from fibroblasts and luciferase assays were previously described (Turkson, J. et al. (1998); Turkson, J. et al. (1999)). Briefly, after two washes with PBS and equilibration for 5 min with 0.5 ml PBS-0.5 mM EDTA, cells were scraped off the dishes and the cell pellet was obtained by centrifugation (4,500×g, 2 min, 4° C.). Cells were resuspended in 0.4 ml of low-salt HEPES buffer (10 mM HEPES (pH 7.8), 10 mM KCl, 0.1 mM EGTA, 0.1 mM EDTA, 1 mM phenylmethylsulfonyl fluoride, and 1 mM dithiothreitol) for 15 min, lysed by the addition of 20 μl of 10% Nonidet P-40 (NP-40), and centrifuged (10,000×g, 30 s, 4° C.) to obtain the cytosolic supernatant, which was used for luciferase assays (Promega) measured with a luminometer. Cytosolic lysates containing activated Stat3 or Stat1 that were used for dissociation-reassociation analysis were prepared from baculovirus-infected Sf-9 insect cells as previously described (Turkson, J. et al. (2001); Zhang, Y. et al. (2000)). Briefly, cultured dishes of Sf-9 cells were washed twice with ice-cold 1×PBS and then PBS containing 1 mM sodium orthovanadate.

NIH3T3 = test: Apo-BrdU labeling and flow cytometry for apoptotic cells; type: cell-based, mouse; details: NIH3T3, 1 mM, 48 h, flow cytometry
Protocol: (§3) Cell proliferation, soft-agar growth and Apo-BrdU labeling studies. Proliferating fibroblasts and human tumor cells were counted by phase-contrast microscopy for viable cells (using tyrpan blue exclusion). Colony formation assays in six-well dishes and quantification of colonies by iodonitrotetrazolium violet have been previously described (Turkson, J. et al. (1999)). Treatment of cells with inhibitors was initiated 1 day after seeding cells by adding 75 μl of medium with or without inhibitor, and repeated every two to three days. Apoptosis was measured by Apo-BrdU labeling and following the supplier's (PharMingen; San Diego, Calif.) instructions.
(§4) Because one of the functions of Stat3 is to protect transformed or tumor cells from apoptosis (Catlett-Falcone, R. et al. (1999b); Epling-Burnette, P. K. et al. (2001); Grandis, J. R. et al. (2000); Bowman, T. et al. (2000b); Bromberg, J. F. et al. (1999)), the ability of peptidomimetics of the invention (and PY*LKTK-MTS for comparison) (SEQ ID NO. 1) to induce apoptosis in Stat3-dependent transformed fibroblasts was evaluated. Viral Src-transformed NIH3T3/v-Src fibroblasts were treated with or without compounds for 48 h. Treated cells were then labeled with Apo-BrdU (PharMingen; San Diego, Calif.) for detection of DNA breaks.

NIH3T3/v-Src = test: as above; type: cell-based, mouse; details: NIH3T3/v-Src, 1 mM, 48 h, Apo-BrdU, flow cytometry
Protocol: as §3, §4

[5] = nuclear extracts pre-incubated 30 min, hSIE probe, EMSA, mean and SD of at least 3 assays, read-out: IC50, disruption of Stat3 DNA-binding activity

CC(=O)NC(Cc1ccc(OP(=O)(O)O)cc1)C(=O)NC(CC(C)C)C(=O)O (stereo not drawn) [ISS230] (Ac-[pY]-Leu-OH; configuration not given here)
IC50 (Stat3 [1]): > 1000 µM

CC(C)CC(NC(=O)C(Cc1ccc(OP(=O)(O)O)cc1)NC(=O)C(C)C)C(=O)O (stereo not drawn) [ISS234] (Isobutyryl-[pY]-Leu-OH; configuration not given here)
IC50 (Stat3 [1]): > 1000 µM

CC(C)CC(NC(=O)C(Cc1ccc(OP(=O)(O)O)cc1)NC(=O)c1cccnc1)C(=O)O (stereo not drawn) [ISS 219] (Nicotinoyl-[pY]-Leu-OH; configuration not given here)
IC50 (Stat3 [1]; [5]): 232 µM

Cc1ncccc1C(=O)NC(Cc1ccc(OP(=O)(O)O)cc1)C(=O)NC(CC(C)C)C(=O)O (stereo not drawn) [ISS 221]
IC50 (Stat5:Stat5): 50 µM
IC50 (Stat1:Stat3): 455 µM
IC50 (Stat3 [1]; [5]): 75 µM
effect on Stat3 DNA-binding activity in vitro (in words) (Stat3 [1]; EMSA): potent disrupters of active Stat3
IC50 (Stat1:Stat1): 310 µM

Cc1ccc(C(=O)NC(Cc2ccc(OP(=O)(O)O)cc2)C(=O)NC(CC(C)C)C(=O)O)cn1 (stereo not drawn) [ISS 223]
IC50 (Stat3 [1]): 225 µM

CC(C)CC(NC(=O)C(Cc1ccc(OP(=O)(O)O)cc1)NC(=O)c1cccc(N)c1)C(=O)O (stereo not drawn) [ISS 248] (H-[3Abz]-[pY]-Leu-OH; configuration not given here)
IC50 (Stat3 [1]): > 1000 µM

CC(C)CC(NC(=O)C(Cc1ccc(OP(=O)(O)O)cc1)NC(=O)c1ccc(N)nc1)C(=O)O (stereo not drawn) [ISS 249]
IC50 (Stat3 [1]): > 1000 µM

CC(C)CC(NC(=O)C(Cc1ccc(OP(=O)(O)O)cc1)NC(=O)c1ccccc1N)C(=O)O (stereo not drawn) [ISS 265] (H-[2Abz]-[pY]-Leu-OH; configuration not given here)
IC50 (Stat3 [1]; [5]): > 1000 µM

CC(C)CC(NC(=O)C(Cc1ccc(OP(=O)(O)O)cc1)NC(=O)c1cccc2ccccc12)C(=O)O (stereo not drawn) [ISS 352]
IC50 (Stat3 [1]): 410 µM

CC(C)CC(NC(=O)C(Cc1ccc(OP(=O)(O)O)cc1)NC(=O)c1ccc2ccccc2c1)C(=O)O (stereo not drawn) [ISS 353]
IC50 (Stat3 [1]; [5]): 650 µM

CC(C)CC(NC(=O)C(Cc1ccc(OP(=O)(O)O)cc1)NC(=O)c1ccc(-c2ccccc2)cc1)C(=O)O (stereo not drawn) [ISS 355]
IC50 (Stat3 [1]): > 1000 µM

CC(C)CC(NC(=O)C(Cc1ccc(OP(=O)(O)O)cc1)NC(=O)c1ccccc1-c1ccccc1)C(=O)O (stereo not drawn) [ISS 360]
IC50 (Stat3 [1]): 420 µM

CC(C)CC(NC(=O)C(Cc1ccc(OP(=O)(O)O)cc1)NC(=O)c1cnc2ccccc2c1)C(=O)O (stereo not drawn) [ISS 363]
IC50 (Stat3 [1]): 643 µM

CC(C)CC(NC(=O)C(Cc1ccc(OP(=O)(O)O)cc1)NC(=O)c1cc([N+](=O)[O-])ccc1F)C(=O)O (stereo not drawn) [ISS 375]
IC50 (Stat3 [1]): > 1000 µM

Cc1cnc(C(=O)NC(Cc2ccc(OP(=O)(O)O)cc2)C(=O)NC(CC(C)C)C(=O)O)cn1 (stereo not drawn) [ISS 493]
IC50 (Stat5:Stat5): 300 µM
IC50 (Stat1:Stat3): 230 µM
selectivity among Stat3, Stat1 and Stat5 (in words) (Stat3 [1]): preferential suppression of Stat3 activity over those of Stat1 or Stat5
IC50 (Stat3 [1]; [5]): 38 µM
IC50 (Stat1:Stat1): 273 µM

COc1cccc(OC)c1C(=O)NC(Cc1ccc(OP(=O)(O)O)cc1)C(=O)NC(CC(C)C)C(=O)O (stereo not drawn) [ISS 637]
IC50 (Stat5:Stat5): 695 µM
IC50 (Stat1:Stat3): 195 µM
selectivity among Stat3, Stat1 and Stat5 (in words) (Stat3 [1]): preferential suppression of Stat3 activity over those of Stat1 or Stat5
increase in potency in inhibiting Stat3 DNA-binding activity compared to tripeptides PY*L or AY*L (Stat3 [1]; in vitro, EMSA): 5 fold
IC50 (Stat3 [1]; [5]): 55 ± 35 µM
effect on Stat3 DNA-binding activity in vitro (in words) (Stat3 [1]; EMSA): potent disrupters of active Stat3
IC50 (Stat1:Stat1): 255 µM

Alanylphosphotyrosylleucine (peptide)
IC50, concentration at which Stat3 DNA-binding (EMSA, hSIE probe) is reduced by 50% [2]: 217 µM

PY*LKTK (P[pY]LKTK) [reference compound]
disruption of Stat3:Stat3 dimer formation and Stat3 DNA-binding activity, as reported earlier (Stat3 [3]): disrupt Stat3:Stat3 dimer formation
effect on STAT dimers in mixed Stat1:Stat1 and Stat3:Stat3 lysates [4]: appearance of an additional intermediate band representing Stat1:Stat3 heterodimers

PYLKTK-AAVLLPVLLAAP (PYLKTKAAVLLPVLLAAP; membrane translocating sequence; murine) [PYLKTK-MTS]
percent of apoptotic cells (NIH3T3): 1.2%
percent of apoptotic cells (NIH3T3/v-Src): 0.4%

Prolylphosphotyrosylleucine (peptide)
IC50, concentration at which Stat3 DNA-binding (EMSA, hSIE probe) is reduced by 50% [2]: 182 µM

Reference: patent US7842671B1, “Peptidomimetic inhibitors of STAT activity and uses thereof” (University of South Florida, priority 2003, dated 2010)
